# Patent publication US20250114389A1, “NUCLEOSIDES AND NUCLEOTIDES ANALOGS AS ANTIVIRAL AGENTS” (Emory University, priority 2021, published 2025)
# pEC50: −log10 of the molar value. Values joined by “and” are separate entries in the source; they are usually repeats but may differ in a detail not shown here. Equal values may be shown once. Read-outs that look alike come from different tables or passages of the source.
# How the values were obtained:
# [1] = Cytotoxicity in CEM cells; format: cell-based, human; details: human, CEM lymphoblastoid cells
# Description: (§1) The toxicity of the compounds was assessed in Vero, human PBM, CEM (human lymphoblastoid), MT-2, and HepG2 cells, as described previously (see Schinazi R. F., Sommadossi J.-P., Saalmann V., Cannon D. L., Xie M.-Y., Hart G. C., Smith G. A. & Hahn E. F. Antimicrob. Agents Chemother. 1990, 34, 1061-67). Cycloheximide was included as positive cytotoxic control, and untreated cells exposed to solvent were included as negative controls. The cytotoxicity IC50 was obtained from the concentration-response curve using the median effective method described previously (see Chou T.-C. & Talalay P. Adv. Enzyme Regul. 1984, 22, 27-55; Belen'kii M. S. & Schinazi R. F. Antiviral Res. 1994, 25, 1-11).
# [2] = Cytotoxicity in Vero cells; details: African green monkey, Vero kidney cells
# [3] = in vitro; details: human, Caco-2
# [4] = tested on: SARS-CoV-2; assay: Anti-SARS-CoV-2 activity in HAE-ALI culture; format: cell-based; details: Severe acute respiratory syndrome coronavirus 2; HAE air-liquid interface
# [5] = in vitro; details: human
# [6] = Quantification of Compound A in mouse lung, brain and plasma; format: in vivo, CD-1 mice; details: for concentration at 7 h / Brain concentration / Lung concentration: 7 h; for Plasma concentration, average / Plasma concentration: assuming density 1 g/mL
# Description: CD-1 mice were treated with Compound A PO (30 mg/kg, 3 mice) or IV (15 mg/kg, 3 mice). Lung and brain samples were collected at 7 h.
# Lung and brain samples were homogenized with 5× volume of 20% MeOH.
# 50 μL tissue homogenate was mixed with 250 μL MeOH (containing 40 nM indinavir as IS).
# The supernatant was air-dried, then reconstituted in 150 μL of H2O.
# Subjected to LC-MS analysis.
# Calibration curve range: 30 nM to 30 μM.
# Instrument: TSQ Quantiva, Column: Kinetex XB—C8 (50×2.1 mm, 2.6 μm)
# LC buffers: A): 0.1% formic acid, and B): Acetonitrile
# MRM methods: Compound A (269.2→112 positive), Indinavir (IS, 614.4→421.2 positive, IS)
# [7] = format: in vitro ADME; details: 10 μM
# Description: An aliquot of 450 μL of human, mouse or hamster plasma were exposed to 10 μM of compound and incubated at 37° C. At 0, 5, 15, 30, 60, 90 and 120 min, 50 μL of plasma sample was mixed with 200 μL of ice-cold methanol (70%). 50 μL supernatant was dried and reconstituted in 100 μL H2O. Propantheline bromide was used as positive control. The supernatant was then subjected to LC-MS analysis (LC-MS condition: Instrument: Thermo TSQ Quantiva. Column: Kinetex […] (50×2.1 mm, […]). LC buffers: A): 0.1% formic acid, and B): acetonitrile. MRM methods: (269.2-112 positive), Indinavir (IS, 614.4-421.2 positive, IS)). The stability results are shown in FIGS. 2-4 (human plasma, mouse plasma and hamster plasma, respectively). Compound A is stable in human and mouse plasma up to 2 hours and stable up to […] in hamster plasma. Compound 23 was converted to compound A in hamster plasma in less than 5 min.
# [8] = tested on: SARS-CoV-2; assay: Anti-SARS-CoV-2 activity in Calu3 cells (virus yield inhibition); format: cell-based; details: Severe acute respiratory syndrome coronavirus 2, Calu-3, Table 1
# [9] = Multi-dose range-finding study in Golden Syrian hamsters; details: hamster, in vivo, po, 30 mg/kg
# Description: Multi-dose range-finding study in Golden Syrian Hamsters: 3 male Syrian hamsters were given 30 mg/kg of compound A by oral gavage daily for 7 days. The body weight of each of the individual hamsters during the nucleoside analog treatment was measured (grams per day) over a 7 day period. […] The body temperature of the hamsters was also measured over the course of the treatment in two of the hamsters (FIG. 9, Rodent 1 and Rodent 2). The third hamster lost the chip, and, despite re-chipping, temperatures were still not recording.
# Daily observations of the hamsters were taken, particularly with respect to their ability to eat and drink normally, and other behavior and activity ratings (B.A.R.), and the observations are summarized below in Table 10.
# [10] = tested on: SARS-CoV-2; assay: Anti-SARS-CoV-2 activity in Calu3 ALI culture; format: cell-based; details: Severe acute respiratory syndrome coronavirus 2, Calu-3; Calu3 air-liquid interface
# [11] = tested on: Omicron; assay: Anti-Omicron activity in Calu-3; format: cell-based, SARS-CoV-2; details: Severe acute respiratory syndrome coronavirus 2
# [12] = tested on: SARS-CoV-2; details: at 1 microM; FIGS. 1A-E (monocytes, epithelial cells, extracellular, total virus)
# [13] = Cytotoxicity in PBM cells; format: cell-based, human; details: human
# Description: as §1
# [14] = tested on: Omicron; assay: microbe, parasite or virus in culture
# [15] = Cytotoxicity in Huh7 cells; format: cell-based; details: human
# [16] = IV 15 mg/kg, individual mice, 15 mg/kg
# [17] = PO 30 mg/kg, individual mice, 30 mg/kg
compound,measurement,setting,value
"N#C[C@@]1(n2ccc(N)nc2=O)O[C@H](CO)[C@@H](O)[C@H]1O [Compound A, (2R,3R,4S,5R)-2-(4-amino-2-oxopyrimidin-1(2H)-yl)-3,4-dihydroxy-5-(hydroxymethyl)-tetrahydrofuran-2-carbonitrile]",CC50,[1],99 µM
same,CC50,[2],> 100 µM
same,CC50,[3],> 100 µM
same,pEC50,[4],6.40
same,EC90,[4],1600 nM
same,CC50,[5],> 100 µM
same,concentration at 7 h,"[6]; CD-1, mouse, brain, iv, 15 mg/kg, IV 15 mg/kg, average of 3 mice, assuming tissue density 1 g/mL, read-out: Brain concentration, average",270 nM
same,concentration at 7 h,"[6]; CD-1, mouse, brain, iv, 15 mg/kg, IV 15 mg/kg, average of 3 mice, read-out: Brain concentration, average",71.3 ng/g
same,concentration at 7 h,"[6]; CD-1, mouse, brain, po, 30 mg/kg, PO 30 mg/kg, average of 3 mice, assuming tissue density 1 g/mL, read-out: Brain concentration, average",200 nM
same,concentration at 7 h,"[6]; CD-1, mouse, brain, po, 30 mg/kg, PO 30 mg/kg, average of 3 mice, read-out: Brain concentration, average",53.1 ng/g
same,concentration at 7 h,"[6]; CD-1, mouse, brain, po, 30 mg/kg, PO 30 mg/kg, individual mice, assuming tissue density 1 g/mL, read-out: Brain concentration",280 nM
same,concentration at 7 h,"[6]; CD-1, mouse, brain, po, 30 mg/kg, PO 30 mg/kg, individual mice, read-out: Brain concentration",73.9 ng/g
same,concentration at 7 h,"[6]; CD-1, mouse, lung, iv, 15 mg/kg, IV 15 mg/kg, average of 3 mice, assuming tissue density 1 g/mL, read-out: Lung concentration, average",1200 nM
same,concentration at 7 h,"[6]; CD-1, mouse, lung, iv, 15 mg/kg, IV 15 mg/kg, average of 3 mice, read-out: Lung concentration, average",321 ng/g
same,concentration at 7 h,"[6]; CD-1, mouse, lung, iv, 15 mg/kg, IV 15 mg/kg, individual mice, assuming tissue density 1 g/mL, read-out: Lung concentration",830 nM
same,concentration at 7 h,"[6]; CD-1, mouse, lung, iv, 15 mg/kg, IV 15 mg/kg, individual mice, read-out: Lung concentration",223 ng/g
same,concentration at 7 h,"[6]; CD-1, mouse, lung, po, 30 mg/kg, PO 30 mg/kg, average of 3 mice, assuming tissue density 1 g/mL, read-out: Lung concentration, average",4010 nM
same,concentration at 7 h,"[6]; CD-1, mouse, lung, po, 30 mg/kg, PO 30 mg/kg, average of 3 mice, read-out: Lung concentration, average",1080 ng/g
same,Brain concentration,[6]; [16],39.3 ng/g and 56.9 ng/g and 117.8 ng/g
same,Lung concentration,[6]; [16],412.0 ng/g and 327.1 ng/g
same,concentration at 7 h,"[6]; IV 15 mg/kg, individual mice, assuming tissue density 1 g/mL, 15 mg/kg, read-out: Brain concentration",150 nM and 210 nM and 440 nM
same,concentration at 7 h,"[6]; IV 15 mg/kg, individual mice, assuming tissue density 1 g/mL, 15 mg/kg, read-out: Lung concentration",1540 nM and 1220 nM
same,"Plasma concentration, average","[6]; IV 15 mg/kg, average of 3 mice",0.52 µM
same,Plasma concentration,[6]; [16],0.37 µM and 0.61 µM and 0.59 µM
same,Brain concentration,[6]; [17],40.8 ng/g and 44.7 ng/g
same,Lung concentration,[6]; [17],"881.8 ng/g and 730.8 ng/g and 1,615 ng/g"
same,concentration at 7 h,"[6]; PO 30 mg/kg, individual mice, assuming tissue density 1 g/mL, 30 mg/kg, read-out: Brain concentration",150 nM and 170 nM
same,concentration at 7 h,"[6]; PO 30 mg/kg, individual mice, assuming tissue density 1 g/mL, 30 mg/kg, read-out: Lung concentration",3290 nM and 2720 nM and 6020 nM
same,"Plasma concentration, average","[6]; PO 30 mg/kg, average of 3 mice",3.13 µM
same,Plasma concentration,[6]; [17],2.09 µM and 2.32 µM and 4.99 µM
same,stable in plasma up to,[7]; hamster,up to 24 h
same,stable in plasma up to,[7]; human,up to 2 hours
same,stable in plasma up to,[7]; mouse,up to 2 hours
same,pEC50,[8],7.70
same,EC90,[8],200 nM
same,Daily Observations,[9],B.A.R. Eating
same,ability to eat and drink,[9],able to eat and drink normally
same,pEC50,[10],5.89
same,EC90,[10],7.4 µM
same,pEC50,[11],5.68 to 5.74
same,EC90,[11],4.5 to 6.2 µM
same,reduction of viral loads,[12],2-3 log
same,CC50,[13],92 µM
same,pEC50,"[14]; Severe acute respiratory syndrome coronavirus 2, Caco-2, read-out: Anti-Omicron Activity (Caco-2) EC50",5.92
same,EC90,"[14]; Severe acute respiratory syndrome coronavirus 2, Caco-2, read-out: Anti-Omicron Activity (Caco-2) EC90",2200 nM
same,CC50,[15],> 100 µM
